Data reported in PubChem BioAssay (NCI).
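Following 48 hours of exposure in 96-well plates, responses at five concentrations were used to interpolate endpoints linearly. GI50: concentration for 50% inhibition of growth. At the TGI there is no net growth.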

How the values were obtained:
Assay in all cases: NCI tumour cell line growth inhibition, 48 h
786-0 renal = system: 786-0 renal
A498 renal = system: A498 renal
A549 NSCLC = system: A549 NSCLC
ACHN renal = system: ACHN renal
BT-549 breast = system: BT-549 breast
CAKI-1 renal = system: CAKI-1 renal
CCRF-CEM leukemia = system: CCRF-CEM leukemia
COLO 205 colon = system: COLO 205 colon
DU-145 prostate = system: DU-145 prostate
EKVX NSCLC = system: EKVX NSCLC
HCC-2998 colon = system: HCC-2998 colon
HCT-116 colon = system: HCT-116 colon
HCT-15 colon = system: HCT-15 colon
HL-60(TB) leukemia = system: HL-60(TB) leukemia
HOP-62 NSCLC = system: HOP-62 NSCLC
HOP-92 NSCLC = system: HOP-92 NSCLC
HS 578T breast = system: HS 578T breast
HT29 colon = system: HT29 colon
IGROV1 ovarian = system: IGROV1 ovarian
K-562 leukemia = system: K-562 leukemia
KM12 colon = system: KM12 colon
LOX IMVI melanoma = system: LOX IMVI melanoma
MALME-3M melanoma = system: MALME-3M melanoma
MCF7 breast = system: MCF7 breast
MDA-MB-231 breast = system: MDA-MB-231 breast
MDA-MB-435 = system: MDA-MB-435
MOLT-4 leukemia = system: MOLT-4 leukemia
NCI-H226 lung = system: NCI-H226 lung
NCI-H23 lung = system: NCI-H23 lung
NCI-H460 lung = system: NCI-H460 lung
NCI-H522 lung = system: NCI-H522 lung
NCI/ADR-RES ovarian = system: NCI/ADR-RES ovarian
OVCAR-3 ovarian = system: OVCAR-3 ovarian
OVCAR-4 ovarian = system: OVCAR-4 ovarian
OVCAR-5 ovarian = system: OVCAR-5 ovarian
OVCAR-8 ovarian = system: OVCAR-8 ovarian
PC-3 prostate = system: PC-3 prostate
RPMI-8226 leukemia = system: RPMI-8226 leukemia
RXF 393 renal = system: RXF 393 renal
SF-268 CNS = system: SF-268 CNS
SF-295 CNS = system: SF-295 CNS
SF-539 CNS = system: SF-539 CNS
SK-MEL-2 melanoma = system: SK-MEL-2 melanoma
SK-MEL-28 melanoma = system: SK-MEL-28 melanoma
SK-MEL-5 melanoma = system: SK-MEL-5 melanoma
SK-OV-3 ovarian = system: SK-OV-3 ovarian
SN12C renal = system: SN12C renal
SNB-19 CNS = system: SNB-19 CNS
SNB-75 CNS = system: SNB-75 CNS
SR leukemia = system: SR leukemia
SW-620 colon = system: SW-620 colon
T-47D breast = system: T-47D breast
TK-10 renal = system: TK-10 renal
U251 CNS = system: U251 CNS
UACC-257 melanoma = system: UACC-257 melanoma
UACC-62 melanoma = system: UACC-62 melanoma
UO-31 renal = system: UO-31 renal

## C#CCOc1cccc(-c2nc(N)nc(Nc3ccccc3SSc3ccccc3Nc3nc(N)nc(-c4cccc(OCC#C)c4)n3)n2)c1
786-0 renal
  GI50: 21.2 µM
  TGI: > 33.3 µM
A498 renal
  GI50: 6.58 µM
  TGI: > 33.3 µM
A549 NSCLC
  GI50: 1.1 µM
  TGI: 4.49 µM
ACHN renal
  GI50: 1.19 µM
  TGI: 4.35 µM
BT-549 breast
  GI50: 8.52 µM
  TGI: > 33.3 µM
CAKI-1 renal
  GI50: 3.78 µM
  TGI: 14.2 µM
CCRF-CEM leukemia
  GI50: 2.64 µM
  TGI: > 33.3 µM
COLO 205 colon
  GI50: > 33.3 µM
  TGI: > 33.3 µM
DU-145 prostate
  GI50: 10.6 µM
  TGI: > 33.3 µM
EKVX NSCLC
  GI50: 7.19 µM
  TGI: > 33.3 µM
HCC-2998 colon
  GI50: > 33.3 µM
  TGI: > 33.3 µM
HCT-116 colon
  GI50: 2 µM
  TGI: > 33.3 µM
HCT-15 colon
  GI50: 2.31 µM
  TGI: > 33.3 µM
HL-60(TB) leukemia
  GI50: 9.92 µM
  TGI: > 33.3 µM
HOP-62 NSCLC
  GI50: 0.674 µM
  TGI: 1.58 µM
HOP-92 NSCLC
  GI50: 7.77 µM
  TGI: > 33.3 µM
HS 578T breast
  GI50: 6.87 µM
  TGI: 31.7 µM
HT29 colon
  GI50: > 33.3 µM
  TGI: > 33.3 µM
IGROV1 ovarian
  GI50: 1.73 µM
  TGI: 24.2 µM
K-562 leukemia
  GI50: 8.03 µM
  TGI: > 33.3 µM
KM12 colon
  GI50: 1.69 µM
  TGI: 11.1 µM
LOX IMVI melanoma
  GI50: 0.746 µM
  TGI: 1.8 µM
MALME-3M melanoma
  GI50: > 33.3 µM
  TGI: > 33.3 µM
MCF7 breast
  GI50: 17.1 µM
  TGI: > 33.3 µM
MDA-MB-231 breast
  GI50: 4.78 µM
  TGI: > 33.3 µM
MDA-MB-435
  GI50: 14.4 µM
  TGI: > 33.3 µM
MOLT-4 leukemia
  GI50: 4.45 µM
  TGI: > 33.3 µM
NCI-H226 lung
  GI50: 4.52 µM
  TGI: > 33.3 µM
NCI-H23 lung
  GI50: 1.95 µM
  TGI: 10.4 µM
NCI-H460 lung
  GI50: 1.72 µM
  TGI: 8.37 µM
NCI-H522 lung
  GI50: 8.13 µM
  TGI: > 33.3 µM
NCI/ADR-RES ovarian
  GI50: 1.89 µM
  TGI: 8.56 µM
OVCAR-3 ovarian
  GI50: 18.2 µM
  TGI: > 33.3 µM
OVCAR-4 ovarian
  GI50: 12.9 µM
  TGI: > 33.3 µM
OVCAR-5 ovarian
  GI50: 7.32 µM
  TGI: 28.2 µM
OVCAR-8 ovarian
  GI50: 2.42 µM
  TGI: 12.9 µM
PC-3 prostate
  GI50: 1.61 µM
  TGI: > 33.3 µM
RPMI-8226 leukemia
  GI50: 1.55 µM
  TGI: 17.1 µM
RXF 393 renal
  GI50: 33.1 µM
  TGI: > 33.3 µM
SF-268 CNS
  GI50: 3.94 µM
  TGI: 12.1 µM
SF-295 CNS
  GI50: 0.751 µM
  TGI: 1.93 µM
SF-539 CNS
  GI50: 11.1 µM
  TGI: > 33.3 µM
SK-MEL-2 melanoma
  GI50: 16.9 µM
  TGI: > 33.3 µM
SK-MEL-28 melanoma
  GI50: > 33.3 µM
  TGI: > 33.3 µM
SK-MEL-5 melanoma
  GI50: 9.94 µM
  TGI: > 33.3 µM
SK-OV-3 ovarian
  GI50: 13.6 µM
  TGI: > 33.3 µM
SN12C renal
  GI50: 0.971 µM
  TGI: 5.37 µM
SNB-19 CNS
  GI50: 7.37 µM
  TGI: > 33.3 µM
SNB-75 CNS
  GI50: 8.99 µM
  TGI: 31.3 µM
SR leukemia
  GI50: 1.41 µM
  TGI: > 33.3 µM
SW-620 colon
  GI50: 14.3 µM
  TGI: > 33.3 µM
T-47D breast
  GI50: 3.29 µM
  TGI: > 33.3 µM
TK-10 renal
  GI50: 13.1 µM
  TGI: > 33.3 µM
U251 CNS
  GI50: 1.08 µM
  TGI: 3.82 µM
UACC-257 melanoma
  GI50: 29.7 µM
  TGI: > 33.3 µM
UACC-62 melanoma
  GI50: 5.43 µM
  TGI: 13.3 µM
UO-31 renal
  GI50: 1.51 µM
  TGI: 5.81 µM
